Experimental data taken from patent US20140323575A1, “TYROSINE ISOMERS AS THERAPEUTIC AGENTS” (CONSEJO NACIONAL DE INVESTIGACIONES CIENTIFICAS Y TECNICAS …, priority 2011, published 2014).
≈ marks a conversion by molar mass, not a printed value.

Tests used:
LB tumor [1] = test: In vivo growth of s.c. LB tumor implants (primary, secondary under CR, established, ascitic); parameters: species or system mice; conditions: for growth of LB tumor implant: inoculated at the site of a primary tumor implant or systemically, daily for 8 days
Description: Twenty mice received an s.c. implant of 1×10^6 LB cells in the right flank, and, 7 days later, an s.c. secondary implant of 1×10^5 LB tumor cells in the left flank. […] The remaining 10 mice received 0.2 mL of phenylalanine (500 μg/mL) at the site of the secondary implant, daily, for 8 days, starting 1 hour after the secondary inoculum [CR+Phe (-□-)]. Controls were 10 mice receiving 1×10^5 LB tumor cells in the left flank only [control (-Δ-)]. A fourth group received the tumor inoculum in the left flank but also meta-tyrosine at the site of tumor implant (0.2 mL of 500 μg/mL, n=10) or by the intraperitoneal route (0.5 mL of 1,000 μg/mL, n=6), daily, for 8 days, starting 1 hour after tumor inoculum [control+m-Tyr: (-▴-)]. A fifth group received the tumor inoculum in the left flank and also meta-tyrosine (0.2 mL of 500 μg/mL, n=5) at the site of tumor growth, daily for 5 days, starting (see arrow) when LB was an established tumor measuring 60 to 70 mm^3 [est. LB+m-Tyr: (-X-)]. Abscissa, days after tumor implant in the left flank. Ordinate, volume of the tumors implanted in the left flank. CR and control+m-Tyr versus control: P<0.001 at day 9 and P<0.002 at days 5 and 7; CR and control+m-Tyr versus CR+Phe: P<0.001 at days 5, 7 and […]; est. LB+m-Tyr versus control and CR+Phe: P<0.002 at day 9. Control+tyrosine or saline, control; CR+tyrosine or saline, CR. FIG. 6B is a microscopic view showing many tumor cells expressing Ki-67 protein in both CR+phenylalanine (B1) and control (B2) groups and few tumor cells expressing Ki-67 in both CR (B3) and control+meta-tyrosine (B4) groups (H×400). FIG. 6C illustrates a representative experiment showing the frequency distribution histogram of viable LB cells from a control tumor (C1), from a secondary tumor inhibited by CR (C2), and from a tumor inhibited by periodic intraumoral injection of meta-tyrosine (C3). Samples of tumor cells were collected 9 days after the s.c. inoculation of 1×10^5 LB tumor cells.

[2] = Evaluation of toxicity of the tyrosine isomers; type: in vivo, mice; conditions: for health of mice after three weeks of treatment / hematologic populations of the blood or the spleen / histological alterations in analyzed tissues / anti-RRC antibody levels: higher dose; for histological alterations in analyzed tissues: three weeks of treatment; for anti-RRC antibody levels: tumor bearing mice and normal mice
Description: The effect of meta-tyrosine and ortho-tyrosine on the immune response triggered by a conventional antigen was evaluated. Ram red cells (RRC) were used.

LB tumor cells = test: In vitro LB tumor cell proliferation ([3H]-thymidine uptake); type: cell-based, mice; conditions: for IC50: Mus musculus, substance alone, read-out: GIU50/mL on in vitro LB tumor cell proliferation; for reversibility of the inhibitory effect: after 18 hours of culture, old medium replaced by fresh medium
Description: Each point (percentage of cpm incorporated by LB cells as compared with the control) represents the mean±SE of 3 experiments. Significance versus control, meta-tyrosine and peak 2: P<0.001 at >2.75 μg/mL; peak 2: P<0.05 at 2.75 μg/mL. ortho-tyrosine P<0.001 at 500 to 125 μg/mL; P<0.002 at 30 μg/mL. Peak 3: P<0.002 and P<0.01, at 31 and 15.5 μg/mL, respectively. Rescue of in vitro LB tumor inhibition mediated by meta-tyrosine (150 μg/mL)(B) or ortho-tyrosine (150 μg/mL) (C) by co-culturing with 150 μg/mL of individual protein amino acids. Each value represents the mean±SE of 8 to 18 determinations for (B) and 4 to 9 determinations for (C). a, P<0.01; c, P<0.001 versus meta- or ortho-tyrosine. Data with saline was similar to data obtained with each amino acid alone.
Fractionation of serum from mice bearing a subcutaneous LB tumor (size≧2,000 mm^3) was carried out through several steps of purification (FIG. 1). Serum from normal mice was similarly fractioned as control. At all stages of the purification, the presence of the inhibitory factor was monitored by the [^3H]-thymidine uptake assay as a measure of LB tumor cell proliferation. First, serum was decomplemented and subjected to dialysis. The inhibitory factor was recovered only in the dialyzable fraction (MW<12,500 Da) and was then concentrated by lyophilization and applied successively to Sephadex G-25 and G-15 chromatographic columns, where activity was recovered at fractions corresponding to a molecular weight below 1,000 Da. These fractions were lyophilized and further purified with an HPLC column C18 in a gradient of acetonitrile in TFA (first HPLC). In 12 similar and independent experiments, growth inhibitory activity was systematically recovered in only 1 fraction eluted at near 20% acetonitrile (FIG. 2).
To test directly whether a “cocktail” of amino acids similar to that detected close to the “primary site” was more counteracting of the antitumor effects produced by m- and o-tyrosine than a “secondary site cocktail,” different concentrations of a mixture of m-tyrosine and o-tyrosine (ratio 1:1) were assayed on LB tumor cell proliferation, alone or together with a primary or a secondary site cocktail of amino acids.

MC-C tumor cells = test: In vitro proliferation of MC-C tumor cells; type: cell-based; conditions: dose-dependent, not shown
CEI tumor = test: In vivo growth of s.c. CEI epidermoid carcinoma implants; parameters: species or system mice; conditions: for effect on growth of CEI tumor implants: mouse, in vivo
Description: Twelve mice received a s.c. implant of 1×10^6 CEI tumor cells in the right flank and 28 days later they received a secondary implant of 3×10^5 CEI tumor cells in the left flank. […] The remaining 6 mice received 0.2 ml of phenylalanine (500 μg/ml) at the site of the secondary implant, daily, for 19 days, starting 1 hour later than the secondary implant. These secondary implants grew as in 6 controls only receiving the implant in the left flank (tumor volumes of secondary tumor+phenylalanine and of controls, 20 days after the implant in the left flank were 358±38 mm^3 and 373±93 mm^3, respectively). […] Significance: Secondary tumor and control+m-tyrosine vs. control: p<0.01; vs. secondary tumor+phenylalanine: p<0.001.

[3] = test system: Chinese-hamster ovary (CHO) cells; conditions: cited from earlier work; for toxicity to CHO cells: incubated in vitro for 7-10 days
CEI tumor cells = test: In vitro proliferation of CEI tumor cells; type: cell-based; conditions: dose-dependent, not shown
LB tumor [4] = test: In vivo growth of s.c. LB tumor implants (primary, secondary under CR, established, ascitic); parameters: species or system mice; conditions: for inhibition of tumor cells in euthymic versus nude mice: mouse, in vivo

| SMILES | growth of LB tumor implant (LB tumor [1]) | health of mice after three weeks of treatment [2] | hematologic populations of the blood or the spleen [2] | histological alterations in analyzed tissues [2] | anti-RRC antibody levels [2] | IC50 (LB tumor cells) [µg/mL] | reversibility of the inhibitory effect (LB tumor cells) | in vitro proliferation of MC-C tumor cells (MC-C tumor cells) | effect on growth of CEI tumor implants (CEI tumor) | toxicity to CHO cells [3] | in vitro proliferation of CEI tumor cells (CEI tumor cells) | inhibition of tumor cells in euthymic versus nude mice (LB tumor [4]) | further results |
| --- | --- | --- | --- | --- | --- | --- | --- | --- | --- | --- | --- | --- | --- |
| NC(Cc1cccc(O)c1)C(=O)O (stereo not drawn) [meta-tyrosine, 3-hydroxyphenylalanine] | did not grow | remained in good health | did not affect | no histological alterations | does not affect | 4.5 ± 0.9 (≈ 24.8 µM) | reversible | inhibited | sharp inhibitory effects | toxic | inhibited | Identical inhibition | effect on established s.c. LB tumors (LB tumor [1]; at site of tumor growth, daily for 5 days, tumor 60 to 70 mm^3 at start): inhibitory; expression of Ki-67 protein in tumor cells (LB tumor [1]; control+m-tyrosine tumors or secondary implants treated with phenylalanine (FIG. 6B)): low expression of Ki-67; tumor growth when treatment was interrupted (LB tumor [1]; mouse, in vivo): could reassume their growth; cell-cycle distribution of LB tumor cells (LB tumor [1]; tumor inhibited by exogenous injection (FIG. 6C)): a decrease in G2-M phases and an increase of the S phase population; toxic side effects in tumor-bearing mice ([2]; during treatment of MC-C, CEI and C7HI tumors): without exhibiting toxic side effects; inhibitory effect of m-tyrosine relative to o-tyrosine (LB tumor cells; in vitro LB tumor cell proliferation): about 10 times; tumor volume 20 days after the implant in the left flank (CEI tumor; CEI implant in left flank only, 0.2 ml of 500 μg/ml daily for 19 days at the site of the implant): 0 mm^3; CHO cells alive 10 days after start of the in vitro culture ([3]; treated with meta-tyrosine): 70%; effect on ascitic LB tumor cells (LB tumor [4]; not shown): inhibitory |
| NC(Cc1ccccc1O)C(=O)O (stereo not drawn) [ortho-tyrosine, 2-hydroxyphenylalanine] | inhibitory | remained in good health | did not affect | no histological alterations | does not affect | 46.7 ± 5.2 (≈ 258 µM) | reversible | inhibited | inhibitory | toxic | inhibited | Identical inhibition |  |
